Measured values taken from US11628226B2, “Methods and gene therapy constructs for treating GM2 gangliosidoses” (priority 2016, dated 2023).

Assays:
[1] = test system: Sandhoff mouse (hexb-/-); assay: Open field test of motor activity in SD mice; assay type: in vivo; details: HEXB-HEXA treated SD mice plus drug, week 24
Protocol: Behavioural testing was carried out on a bi-weekly basis from the age of eight weeks until each end point. The behavioural testing was done in three different parts and always assessed in the morning of the 12 hour light cycle.
Open Field Test: Used to assess overall locomotion and activity levels. The mouse was placed in a 40 cm×40 cm arena with walls. Time moving, rearing activity and the distance travelled were all electronically recorded by an ActiMot system. Speed was calculated by dividing the distance travelled by the time moving. Each mouse underwent one five minute trial.
To determine if the administration of AAV9-HexB-HexA improved motor activity in the neonatally treated SD mice, distance travelled in the 5-minute open-field test was analyzed. Testing began at eight weeks, when motor deterioration in SD mice begins to show and continued on a bi-weekly basis to 24 weeks. […] In FIG. 4, values at each point represent the mean.

[2] = test system: β-hexosaminidase A (HexA); assay: HexA activity in midbrain (4-MUGS assay); assay type: in vivo, mouse; details: 16-week midbrain, drug alone or in conjunction with HEXB-HEXA
Protocol: Animal tissues were collected at designated 16 week end points and long term humane end points. The humane end points were determined by either […] loss of peak body weight or an inability to right itself in 10 seconds. Euthanization was carried out via CO2 asphyxiation followed by cardiac puncture and perfusion with 10 mL of chilled PBS. For biochemical analysis sections of the forebrain, midbrain, hindbrain, cervical spinal cord, and lumbar spinal cord were collected along with the heart, lungs, liver, spleen, kidney, gonads, and a section skeletal muscle. These were all frozen immediately for further processing. […]
Total hexosaminidase activity and Hex activity was measured as previously described (Maegawa et al. 2007; Tropak et al. 2004). […] Total hexosaminidase activity was determined through the use of the 4-methylumbelliferyl-2-acetamido-2-deoxy-β-D-glucopyranoside (4-MUG) assay, whereas the HexA enzyme activity alone was determined through the use of the 4-methylumbelliferyl-7-6-sulfo-2-acetamido-2-deoxy-β-D-glucopyranoside (4-MUGS) assay. Beta galactosidase activity was determined through the use of 4-methylumbelliferyl-β-D-galactopyranoside assay. […] Briefly, the samples were incubated with the fluorogenic substrate at 37° C. for 1 hour, then read on the plate reader with excitation wavelength of 365 nm and an emission wavelength of 450 nm. […]

[3] = test system: Sandhoff mouse (hexb-/-); assay: Survival of SD mice (Kaplan-Meier, humane end point); assay type: in vivo; details: for Survival in conjunction with HEXB-HEXA: AAV9-HEXB-HEXA neonatal day one 2×10^13 vg/kg plus daily oral drug from eight weeks; for Survival time: untreated SD mice 110 days; for Mice that did not reach humane end point after 210 days: drug in conjunction with HEXB-HEXA, n=6 per group
Protocol: The hexb−/− experimental mice were obtained from Jackson Laboratories. From these, a colony was established at Queen's University through heterozygous breeding (hexb+/−). Genotyping of the mice was carried out via PCR amplification from animal ear punches taken at the time of weaning (three weeks of age). Experimental animals were obtained through mutant cross breeding (hexb−/−). The mice were maintained on a 12-hour light cycle from 7 am to 7 pm. All experimental protocols and procedures were performed in accordance with and were approved by the Queen's University Animal Care Committee.
Neonatal mice were intravenously injected with the ssAAV/HEXB-HEXA vector or a vehicle injection through the superficial temporal vein on day 0-1. Each treated mouse received an injection of 2.04×10^10 vg/mouse in a volume of 50 uL PBS with […] NaCl and 5% sorbitol (vehicle). Untreated mice received an injection of 50 uL vehicle. During the injections, the dames were removed from the pups and placed in a clean cage. The cage of the pups alone was placed on a heating pad to keep them warm. Pups were then removed from the cage, one at a time, and placed over an LED light to aid in visualization of the superficial temporal vein. The pups received the injection using a 30 gauge needle and 1 mL syringe. After the injection, pressure was applied to the mouse using sterile gauze and the pup was returned to the home cage. The dame was returned to the cage with the pups following the completion of all injections. Pups were then monitored closely for several days to ensure survival.
Starting at eight weeks of age, each drug treatment cohort received pyrimethamine, indomethacin, or ITF2357 at a dose of 1 mg/kg/day. Drug treatments were administered in the morning of the 12-hour light cycle via oral gavage using a 22 g curved feeding needle from Kent Scientific. ITF2357 was dissolved in ddH2O by heating to 85° C. while stirring for 1 hour. Indomethacin and pyrimethamine were each dissolved in 0.5% methylcellulose by heating to 80° C. while stirring for 1 hour. Each of these was stored at 4° C. for up to 2 weeks.
(§1) Animal tissues were collected at designated 16 week end points and long term humane end points. The humane end points were determined by either […] loss of peak body weight or an inability to right itself in 10 seconds. Euthanization was carried out via CO2 asphyxiation followed by cardiac puncture and perfusion with 10 mL of chilled PBS. For biochemical analysis sections of the forebrain, midbrain, hindbrain, cervical spinal cord, and lumbar spinal cord were collected along with the heart, lungs, liver, spleen, kidney, gonads, and a section skeletal muscle. These were all frozen immediately for further processing. For histological purposes, sections of the midbrain and liver were collected, fixed in 4% paraformaldehyde overnight and then immersed in 100% ethanol until sent to the Queen's University Histology department for paraffin embedding. Additional midbrain sections were collected from a number of mice and frozen in liquid nitrogen. Blood was collected via the saphenous vein on a monthly basis starting at 8 weeks and continuing until the humane end point. Additionally, blood was collected via the cardiac puncture during euthanization. Serum was separated from blood samples by centrifugation of 4000 rpm for 10 min and frozen immediately for storage.
To evaluate the efficacy of a single intravenous […] of rAAV9 expressing the human HEXA and HEXB cDNA in ameliorating the biochemical and neurological phenotype in SD, AAV9-HEXB-HEXA or a vehicle control was administered to postnatal day one neonates at a relatively low dose of 2×10^13 vg/kg via superficial temporal vein. Mice were all followed until they reached 32 weeks of age, or a humane end point.
Survival was analyzed with the log-rank (Mantel-Cox) test. […] This relationship is shown by the Kaplan-Meier plots in FIG. 3. […]

[4] = test system: GM2 ganglioside storage in mouse brain; assay: GM2 ganglioside levels in midbrain by thin layer chromatography; assay type: in vivo; details: 16-week midbrain, drug on its own or in addition to HEXB-HEXA
Protocol: as §1, with “storage. […]” for “storage.”

[5] = SD mice, drug alone 1 mg/kg/day oral gavage from eight weeks

Row | SMILES | Mobility in the open field test in conjunction with HEXB-HEXA [1] | Further change in HexA activity [2] | Survival in conjunction with HEXB-HEXA ([3]; SD mice) | Survival time [3, 5] | Mice that did not reach humane end point after 210 days [3] | Additional decrease in GM2 ganglioside build-up [4] | Survival (mean) ([3]; SD mice, drug alone 1 mg/kg/day oral gavage from eight weeks, no significant effect)
1 | CCN(CC)Cc1ccc2cc(COC(=O)Nc3ccc(C(=O)NO)cc3)ccc2c1 [ITF2357] | significant increase in mobility | no further increase or decrease | significant increase in survival | 119 days | two | No additional decrease | 
2 | COc1ccc2c(c1)c(CC(=O)O)c(C)n2C(=O)c1ccc(Cl)cc1 [indomethacin] | significant increase in mobility | no further increase or decrease | significant increase in survival | 123.5 days | two | No additional decrease | 
3 | CCc1nc(N)nc(N)c1-c1ccc(Cl)cc1 [pyrimethamine] |  |  |  |  |  |  | 112.5 days
